{"source": "PubChem BioAssay AID248", "about": "(DTP/NCI, 2004)", "tested_on": "L1210 leukemia ip in BDF1 mice, survival T/C", "experiment": "NCI In Vivo Anticancer Drug Screen. Data for tumor model L1210 Leukemia (intraperitoneal) in B6D2F1 (BDF1) mice", "settings": "endpoint: mean survival time, higher = longer survival", "outline": "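Tumor was transplanted into mice, which were then dosed with test compound or vehicle alone. Survival was recorded for each group, and the treated figure was expressed relative to the control figure.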", "key": {"[1]": {"settings": "dose: 100.0 mg/kg/injection, schedule: Q04DX003 (ip), vehicle: saline with Tween-80"}, "[2]": {"settings": "dose: 200.0 mg/kg/injection, schedule: Q04DX003 (ip), vehicle: saline with Tween-80"}, "[3]": {"settings": "dose: 400.0 mg/kg/injection, schedule: Q04DX003 (ip), vehicle: saline with Tween-80"}, "[4]": {"settings": "dose: 100.0 mg/kg/injection, schedule: Q01DX009 (ip), vehicle: saline with Tween-80"}, "[5]": {"settings": "dose: 100.0 mg/kg/injection, schedule: Q04DX003 (ip), vehicle: Klucel (hydroxypropylcellulose) (HPC)"}, "[6]": {"settings": "dose: 200.0 mg/kg/injection, schedule: Q01DX009 (ip), vehicle: saline with Tween-80"}, "[7]": {"settings": "dose: 200.0 mg/kg/injection, schedule: Q04DX003 (ip), vehicle: Klucel (hydroxypropylcellulose) (HPC)"}, "[8]": {"settings": "dose: 400.0 mg/kg/injection, schedule: Q01DX009 (ip), vehicle: saline with Tween-80"}, "[9]": {"settings": "dose: 400.0 mg/kg/injection, schedule: Q04DX003 (ip), vehicle: Klucel (hydroxypropylcellulose) (HPC)"}, "[10]": {"settings": "dose: 25.0 mg/kg/injection, schedule: Q04DX002 (ip), vehicle: saline with Tween-80"}, "[11]": {"settings": "dose: 50.0 mg/kg/injection, schedule: Q04DX002 (ip), vehicle: saline with Tween-80"}, "[12]": {"settings": "dose: 100.0 mg/kg/injection, schedule: Q04DX002 (ip), vehicle: saline with Tween-80"}, "[13]": {"settings": "dose: 50.0 mg/kg/injection, schedule: Q04DX003 (ip), vehicle: Klucel (hydroxypropylcellulose) (HPC)"}, "[14]": {"settings": "dose: 100.0 mg/kg/injection, schedule: Q01DX009 (ip), vehicle: Klucel (hydroxypropylcellulose) (HPC)"}, "[15]": {"settings": "dose: 200.0 mg/kg/injection, schedule: Q01DX009 (ip), vehicle: Klucel (hydroxypropylcellulose) (HPC)"}, "[16]": {"settings": "dose: 400.0 mg/kg/injection, schedule: Q01DX009 (ip), vehicle: Klucel (hydroxypropylcellulose) (HPC)"}}, "note": "Several values for one entry are separate records, joined by “and”; a condition that tells them apart may be missing. Equal entries are not always repeated. Toxic doses and inconclusive results are not listed.", "data": [{"smiles": "C/C=C/CCC(C)=O", "values": [{"measurement": "T/C", "setting": "[1]", "value": "99 % of control"}, {"measurement": "T/C", "setting": "[2]", "value": "100 % of control"}, {"measurement": "T/C", "setting": "[3]", "value": "108 % of control"}]}, {"smiles": "O=C1CCCCCCCCC1O", "note": "(stereo not drawn)", "values": [{"measurement": "T/C", "setting": "[4]", "value": "120 % of control"}, {"measurement": "T/C", "setting": "dose: 100.0 mg/kg/injection, schedule: Q01DX009 (ip), vehicle: saline", "value": "333 % of control"}, {"measurement": "T/C", "setting": "[5]", "value": "103 % of control"}, {"measurement": "T/C", "setting": "[6]", "value": "101 % of control"}, {"measurement": "T/C", "setting": "dose: 200.0 mg/kg/injection, schedule: Q01DX009 (ip), vehicle: saline", "value": "114 % of control"}, {"measurement": "T/C", "setting": "[7]", "value": "115 % of control"}, {"measurement": "T/C", "setting": "[8]", "value": "97 % of control"}, {"measurement": "T/C", "setting": "dose: 400.0 mg/kg/injection, schedule: Q01DX009 (ip), vehicle: saline", "value": "105 % of control"}, {"measurement": "T/C", "setting": "[9]", "value": "108 % of control"}]}, {"smiles": "COc1cc(C=Nc2ccccc2)cc(OC)c1OC", "values": [{"measurement": "T/C", "setting": "[5]", "value": "104 % of control"}, {"measurement": "T/C", "setting": "[7]", "value": "102 % of control"}, {"measurement": "T/C", "setting": "[9]", "value": "95 % of control"}]}, {"smiles": "CC1(C)C(c2ccccc2)=NN=C1c1ccccc1", "values": [{"measurement": "T/C", "setting": "[4]", "value": "93 % of control"}, {"measurement": "T/C", "setting": "[1]", "value": "90 % of control"}, {"measurement": "T/C", "setting": "[6]", "value": "91 % of control"}, {"measurement": "T/C", "setting": "[2]", "value": "104 % of control"}, {"measurement": "T/C", "setting": "[8]", "value": "112 % of control"}, {"measurement": "T/C", "setting": "[3]", "value": "104 % of control"}]}, {"smiles": "Cc1nc[nH]c(=O)c1CCC1OCCO1", "values": [{"measurement": "T/C", "setting": "dose: 100.0 mg/kg/injection, schedule: Q04DX003 (ip), vehicle: saline", "value": "93 % of control"}, {"measurement": "T/C", "setting": "dose: 200.0 mg/kg/injection, schedule: Q04DX003 (ip), vehicle: saline", "value": "98 % of control"}, {"measurement": "T/C", "setting": "dose: 400.0 mg/kg/injection, schedule: Q04DX003 (ip), vehicle: saline", "value": "98 % of control"}]}, {"smiles": "O=C(O)c1cc(O)[nH]c(=O)c1", "values": [{"measurement": "T/C", "setting": "[1]", "value": "102 % of control"}, {"measurement": "T/C", "setting": "[2]", "value": "91 % of control"}, {"measurement": "T/C", "setting": "[3]", "value": "94 % of control"}]}, {"smiles": "CCCCSP(=O)(SCCCC)N1CCCCC1", "values": [{"measurement": "T/C", "setting": "[10]", "value": "108 % of control"}, {"measurement": "T/C", "setting": "[11]", "value": "89 % of control"}, {"measurement": "T/C", "setting": "[12]", "value": "101 % of control"}]}, {"smiles": "C=C1C(=O)O[C@H]2C[C@@]3(C)[C@H](O)CCC(=C)[C@@H]3[C@@H](OC(C)=O)[C@H]12", "values": [{"measurement": "T/C", "setting": "[10]", "value": "86 % of control"}, {"measurement": "T/C", "setting": "[11]", "value": "93 % of control"}, {"measurement": "T/C", "setting": "[12]", "value": "108 % of control and 90 % of control"}]}, {"smiles": "CCOC(=O)C1(C(=O)OCC)CCC(O)N1C(=O)c1ccccc1[N+](=O)[O-]", "note": "(stereo not drawn)", "values": [{"measurement": "T/C", "setting": "[13]", "value": "97 % of control"}, {"measurement": "T/C", "setting": "[5]", "value": "91 % of control"}, {"measurement": "T/C", "setting": "[7]", "value": "91 % of control"}]}, {"smiles": "CCCCCCCCCCC(=O)OCC1OC2C(Oc3nc(=N)ccn32)C1OC(=O)CCCCCCCCCC", "note": "(stereo not drawn)", "values": [{"measurement": "T/C", "setting": "dose: 25.0 mg/kg/injection, schedule: Q01DX009 (ip), vehicle: water", "value": "166 % of control"}, {"measurement": "T/C", "setting": "dose: 50.0 mg/kg/injection, schedule: Q01DX009 (ip), vehicle: water", "value": "210 % of control"}]}, {"smiles": "O=C(NCCCOc1ccc([N+](=O)[O-])cc1)OCc1ccccc1", "values": [{"measurement": "T/C", "setting": "[5]", "value": "109 % of control"}, {"measurement": "T/C", "setting": "[7]", "value": "107 % of control"}]}, {"smiles": "CCCCCC(=O)Oc1c(C(C)CC)cc([N+](=O)[O-])cc1[N+](=O)[O-]", "note": "(stereo not drawn)", "values": [{"measurement": "T/C", "setting": "dose: 6.25 mg/kg/injection, schedule: Q01DX009 (ip), vehicle: saline with Tween-80", "value": "111 % of control"}, {"measurement": "T/C", "setting": "dose: 12.5 mg/kg/injection, schedule: Q01DX009 (ip), vehicle: saline with Tween-80", "value": "88 % of control"}, {"measurement": "T/C", "setting": "dose: 25.0 mg/kg/injection, schedule: Q01DX009 (ip), vehicle: saline with Tween-80", "value": "90 % of control"}, {"measurement": "T/C", "setting": "[10]", "value": "89 % of control"}]}, {"smiles": "CC(C)(C)C(=O)Nc1ccc(F)cc1", "values": [{"measurement": "T/C", "setting": "[14]", "value": "110 % of control"}, {"measurement": "T/C", "setting": "[15]", "value": "94 % of control"}, {"measurement": "T/C", "setting": "[16]", "value": "116 % of control"}]}, {"smiles": "NC(=O)NCc1ccccc1", "values": [{"measurement": "T/C", "setting": "dose: 100.0 mg/kg/injection, schedule: Q01DX001 (ip), vehicle: saline", "value": "105 % of control"}, {"measurement": "T/C", "setting": "dose: 200.0 mg/kg/injection, schedule: Q01DX001 (ip), vehicle: saline", "value": "97 % of control"}, {"measurement": "T/C", "setting": "dose: 400.0 mg/kg/injection, schedule: Q01DX001 (ip), vehicle: saline", "value": "103 % of control"}]}, {"smiles": "ClC(Cl)C1OCCOCCO1", "values": [{"measurement": "T/C", "setting": "dose: 100.0 mg/kg/injection, schedule: Q04DX002 (ip), vehicle: Klucel (hydroxypropylcellulose) (HPC)", "value": "97 % of control"}, {"measurement": "T/C", "setting": "dose: 200.0 mg/kg/injection, schedule: Q04DX002 (ip), vehicle: Klucel (hydroxypropylcellulose) (HPC)", "value": "100 % of control"}, {"measurement": "T/C", "setting": "dose: 400.0 mg/kg/injection, schedule: Q04DX002 (ip), vehicle: Klucel (hydroxypropylcellulose) (HPC)", "value": "97 % of control"}]}, {"smiles": "CC1=C(C)Cc2c(-c3ccccc3)oc(-c3ccccc3)c2C1", "values": [{"measurement": "T/C", "setting": "dose: 100.0 mg/kg/injection, schedule: Q01DX001 (ip), vehicle: saline with Tween-80", "value": "94 % of control"}, {"measurement": "T/C", "setting": "dose: 200.0 mg/kg/injection, schedule: Q01DX001 (ip), vehicle: saline with Tween-80", "value": "90 % of control"}, {"measurement": "T/C", "setting": "dose: 400.0 mg/kg/injection, schedule: Q01DX001 (ip), vehicle: saline with Tween-80", "value": "90 % of control"}]}, {"smiles": "c1ccc(-c2[nH]c3ccccc3c2-c2ccccc2)cc1", "values": [{"measurement": "T/C", "setting": "[13]", "value": "90 % of control"}, {"measurement": "T/C", "setting": "[14]", "value": "106 % of control"}, {"measurement": "T/C", "setting": "[5]", "value": "98 % of control"}, {"measurement": "T/C", "setting": "[15]", "value": "103 % of control"}, {"measurement": "T/C", "setting": "[7]", "value": "106 % of control"}, {"measurement": "T/C", "setting": "[16]", "value": "96 % of control"}, {"measurement": "T/C", "setting": "[9]", "value": "92 % of control"}]}]}
